Data set [1] can be described thus: Cytotoxicity against human HepG2.2.15 cells assessed as cell viability. It is filed as cell-based, HepG2 2.2.15. Conditions: read-out: TC50 (the source's name).
In data set [2] the test system is Hepatitis B virus. The experiment in a line: Inhibition of HBV DNA replication in HepG2.2.15 cells. It is filed as functional, organism-based.
The subject of data set [3] is Hepatitis B virus. The data set can be described thus: Inhibition of HBV DNA replication. It is filed as functional, organism-based.
Data set [4] concerns Hepatitis B virus. The experiment in a line: Inhibition of HBV antigen secretion. It is filed as functional, organism-based.
Data set [5] relates to Hepatitis B virus. The experiment in a line: Inhibition of HBV virions secretion. The data set is classed as functional, organism-based.
Data set [6] deals with Hepatitis B virus. The data set can be described thus: Inhibition of HBV in Huh7 cells by ELISA. It is filed as functional, organism-based. Conditions: Huh-7. (An ELISA detects its analyte on a solid surface through an enzyme-linked reagent.)
The nature of data set [7]: Cytotoxicity against human HuH7 cells. It is filed as cell-based, Huh-7.
The subject of data set [8] is Hepatitis B virus. The data set can be described thus: Inhibition of HBV DNA replication in HepG2 cells by southern blot analysis. It is filed as functional, organism-based.
Data set [9] can be described thus: Cytotoxicity against human HepDES19 cells after 48 hrs by MTT assay. It is filed as cell-based.
For data set [10], the system named is Hepatitis B virus. The experiment in a line: Inhibition of HBV DNA replication in AML-12 cells after 48 hrs by dot blot analysis. The data set is classed as functional, organism-based. The note with it: AML12, 48 h.
Data set [11] concerns Hepatitis B virus. The data set can be described thus: Inhibition of HBV DNA replication in HepDES19 cells after 48 hrs by dot blot analysis. The data set is classed as functional, organism-based. Conditions: HepDES19, 48 h.
Data set [12] in a line: Cytotoxicity against mouse AML-12 cells after 48 hrs by MTT assay. The data set is classed as cell-based.
Data set [13] is described as follows: Cytotoxicity against human HepDE19 cells after 7 days by MTT assay. The data set is classed as cell-based.
Data set [14] relates to Hepatitis B virus. The experiment in a line: Inhibition of HBV antigen secretion in HepDE19 cell after 7 days by ELISA. Conditions: HepDE19, 168 h. The data set is classed as functional, organism-based.
The nature of data set [15]: Selectivity index, ratio of cytotoxicity against human HepG2.2.15 cells to IC50 for HBV DNA replication in HepG2.2.15 cells. The note with it: read-out: Selectivity Index. It is filed as toxicity, cell-based.
Data set [16] concerns Hepatitis B virus. The experiment in a line: Inhibition of HBV antigen secretion in HepG2.2.15 cells. It is filed as functional, organism-based.
Data set [17] can be described thus: Selectivity index, ratio of cytotoxicity against human HepG2.2.15 cells to IC50 for HBV antigen secretion in HepG2.2.15 cells. The data set is classed as toxicity, cell-based. The note with it: read-out: Selectivity Index.
The nature of data set [18]: Cytotoxicity against human HepAD38 cells. It is filed as cell-based. The note with it: read-out: TC50 (the source's name).
Data set [19] has as its system Hepatitis B virus. The experiment in a line: Inhibition of HBV DNA replication in HepAD38 cells. It is filed as functional, organism-based.
A short description of data set [20]: Ratio of CC50 for human HepG2.2.15 cells to IC50 for HBV DNA replication in HepG2.2.15 cells. Set-up: species or system HepG2 2.2.15.

A value given as a limit tells only on which side of the number the result lay.

The term IC50 denotes the point on the concentration scale where inhibition reaches its midpoint. `CCOC(=O)C1=C(C)NC(c2nccs2)=N[C@H]1c1ccc(F)cc1Cl`: the CC50 in data set [1] was determined as 25000 nM. The molecule also yielded a half-inhibitory concentration (IC50) in data set [2] of 30 nM.

With `CC(C)Cc1sc(-c2nccs2)nc1C(=O)NCc1ccc(F)cc1`, the half-inhibitory concentration (IC50) in data set [3] came out at 140 nM.

One may read the EC50 as the concentration at which the effect is half-maximal. `Clc1cc2nc(N3CCN(c4ccccn4)CC3)[nH]c2cc1Cl`: the values for the EC50 in data set [4] and in [5] were 1500 nM and 600 nM, respectively.

In [6], `Cc1cc(C)n2[nH]c(=S)nc2n1` came in with a 50% effective concentration (EC50) of 120 nM. The CC50 in data set [7] was more than 50000 nM.

Turning to `CCOC(=O)C1=C(CN2CCOCC2)NC(c2nccs2)=NC1c1ccc(F)cc1Br` (stereo unspecified), the IC50 in [8] stood at 12 nM.

Turning to `CCC(C)NS(=O)(=O)c1ccc(F)c(C(=O)NCc2ccc(F)c(F)c2)c1` (stereo unspecified), the CC50 at 48 h in [9] and in [12] was more than 50000 nM in each case. Further, the values for the concentration for a half-maximal effect (EC50) in [10] and in data set [11] were 300 nM and 100 nM, respectively.

Molecule `O=C(CN(c1cc(C(F)(F)F)ccc1Cl)S(=O)(=O)c1ccccc1)NCc1ccncc1` returned a CC50 at 168 h in data set [13] of more than 50000 nM. The molecule further came in with a concentration giving a half-maximal response (EC50) in data set [14] of 4550 nM.

Turning to `CCOC(=O)C1=C(C)NC(c2ncccc2F)=NC1c1ccc(F)cc1Cl` (stereo unspecified), the CC50 in data set [1] came out at 50000 nM. The same molecule came in with an IC50 in data set [2] of 150 nM.

`O=C(NCc1ccc(F)c(F)c1)c1cc(S(=O)(=O)NC2CCCC2)ccc1F`: the CC50 at 48 h in [9] and in data set [12] was more than 50000 nM each time. Further, the half-maximal effective concentration (EC50) in data set [10] stood at 390 nM; in data set [11], 140 nM.

For `CCOC(=O)c1cc2cc(OC)c(O)c(CN3C=NCC3)c2nc1C[S+]([O-])c1ccc(F)c(F)c1` (stereo unspecified), the results for the selectivity ratio in [15] and in data set [17] were 61.6 and 11.3, respectively. For the same molecule, the half-maximal inhibitory concentration (IC50) in [16] worked out at 14200 nM; in data set [2], 2600 nM.

For `COc1cc2nc3c(cc2c(Cn2ccnc2C)c1O)CSc1cc(F)ccc1-3`, the selectivity ratio in [15] was 60.3. In data set [2], this molecule showed an IC50 of 1700 nM.

The EC90 is the point of the concentration-response curve where the effect stands at 90%. A high value points to weaker potency. Consider `O=C(N/C(C(=O)N1CCCCC1)=C(/Cl)c1ccccc1)c1ccccc1`, for which the CC50 in data set [18] was more than 81000 nM. Also, in data set [19], the response was half-maximal at 1200 nM (EC50) and the EC90 came to 13000 nM.

Consider `COc1ccccc1/C(Br)=C(\NC(=O)c1ccc([N+](=O)[O-])cc1)C(=O)N1CCCCC1`, for which the CC50 in data set [18] was more than 61000 nM. In data set [19], this molecule had an EC50 of 130 nM and a 90% effect concentration (EC90) of 920 nM.

With `CCCCC/N=C(\c1ccc(=O)n(CCCCC)c1)c1ccc(OC)cc1O`, the concentration for half-maximal inhibition (IC50) in data set [3] was determined as 30000 nM; in data set [4] it was 5000 nM.

In [6], `O=C1OC(OCc2ccccc2)=N/C1=C\c1ccccc1` came in with a 50% effective concentration (EC50) of 5400 nM. In data set [7], this molecule came in with a CC50 of more than 50000 nM.

`Cc1nc2cc(NC(=O)c3ccc(S(=O)(=O)N(C)Cc4ccccc4)cc3)ccc2s1` registered a CC50 at 168 h in data set [13] of more than 2570 nM. Besides, the EC50 in [14] came out at 350 nM.

Turning to `CCOC(=O)c1cc2cc(OC)c(O)c(CN3CCCC3)c2nc1CSc1ccccc1`, the selectivity ratio in data set [15] was 2.8. In addition, half-maximal inhibition in data set [2] (IC50) required 36800 nM.

Regarding `CN(C)C(=O)c1ccc2c(c1)nc(-c1nccs1)n2C`, the “Ratio CC50/IC50” value in data set [20] is given as more than 90. Besides, the IC50 in [2] stood at 1100 nM.

With `O=C(NCc1ccccc1)c1ccc(Cl)c(S(=O)(=O)N2CCCCCC2)c1`, the CC50 at 48 h in [9] and in data set [12] was more than 50000 nM in each case. Further, the EC50 in [10] was 1700 nM; in data set [11], 1600 nM.
